Reference: paper PMC5124248, “Antitumor activity of TY-011 against gastric cancer by inhibiting Aurora A, Aurora B and VEGFR2 kinases” (Journal of Experimental & Clinical Cancer Research : CR, 2016)
Where two headings read alike, the source gives them in different places.

Key:
[1] = biological target: T1, Aurora B (Homo sapiens, UniProt Q96GD4); test: HTRF KinEASE-STK kinase assay, Aurora B; format: biochemical
T1 construct: gift from Professor Jia Li, Shanghai Institute of Materia Medica/Chinese Academy of Sciences
T1 sequence (Q96GD4 whole entry): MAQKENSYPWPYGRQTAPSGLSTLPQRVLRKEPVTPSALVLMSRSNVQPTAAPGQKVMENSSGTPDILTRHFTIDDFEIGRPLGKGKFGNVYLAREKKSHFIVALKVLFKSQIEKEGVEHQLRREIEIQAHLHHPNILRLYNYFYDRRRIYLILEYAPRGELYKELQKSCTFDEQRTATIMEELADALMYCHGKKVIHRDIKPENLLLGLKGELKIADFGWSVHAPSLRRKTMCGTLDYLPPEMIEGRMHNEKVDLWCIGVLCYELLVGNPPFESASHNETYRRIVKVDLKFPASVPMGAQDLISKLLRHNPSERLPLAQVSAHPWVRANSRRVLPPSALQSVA
Description: The inhibition of TY-011 on activity of Aurora A, Aurora B and VEGFR2 was characterized by HTRF® KinEASE™-STK/TK kit according to the manufacturer’s instructions (Cisbio Assays, Codolet, France). Aurora A and Aurora B were gifts from Professor Jia Li, Shanghai Institute of Materia Medica/Chinese Academy of Sciences. VEGFR2 was purchased from Carna Biosciences (Kobe, Japan).

[2] = system: MKN-45 cells; test: CCK-8 cell proliferation assay, MKN-45; format: cell-based; conditions: Homo sapiens; MKN-45, CCK-8, Fig. 3
Method: (§1) During the logarithmic growth phase, each cell line was seeded in a 96-well tissue culture plate (Thermo Fisher Scientific, Waltham, MA, USA) at a predetermined density in complete medium, attached overnight and treated with compound for the indicated time. The medium was discarded and replaced with 10% CCK-8 (Dojindo, Kumamoto, Japan) in complete medium, then incubated the plates for another 2 h. The OD450 was measured with SpectraMax M5 (Molecular Devices, CA, USA). A background absorbance of ODblank was subtracted from all wells. The survival rate was determined with following formula: Survival rate (%) = ODcompound/ODDMSO × 100%. The IC50 values were calculated by concentration − response curve fitting using the four parameter method.

[3] = system: MGC-803 cells; test: CCK-8 cell proliferation assay, MGC-803; format: cell-based; conditions: Homo sapiens
Method: as §1

[4] = system: 5 gastric cancer cell lines; test: CCK-8 cell proliferation assay, panel of 5 gastric cancer cell lines; format: cell-based; conditions: Homo sapiens; range over SNU-16, MKN-45, MGC-803, SGC-7901, AGS; read-out: IC50 values across 5 gastric cancer cell lines
Method: as §1

[5] = system: SGC-7901 cells; test: Annexin V/PI apoptosis analysis, SGC-7901; format: cell-based, human; conditions: 48 h (14.1% control)
Method: Apoptosis was detected by FITC Annexin V Apoptosis Detection Kit I according to the manufacturer’s instructions (Dojindo, Kumamoto, Japan) to determine the phosphatidyl serine exposure. Apoptotic cells were quantified by a flow cytometer (Guava EasyCyte 6HT-2 L, Merck Millipore, Billerica, MA, USA) using the InCyte software. At least 10 000 cells were analyzed for each data point.

[6] = system: p-Aurora A (T288); test: Cellular Aurora A phosphorylation (western blot, immunofluorescence) in MGC-803 cells; format: cell-based, human
Method: (§2) The proteins of whole cell lysates were prepared in RIPA buffer containing protease and phosphatase inhibitors (Thermo Fisher Scientific, Waltham, MA, USA), and quantified by the bicinchoninic acid (BCA) method. Immunoblotting analysis of proteins in cell lysates was performed as previously described. Primary antibodies used were as follows: anti-Aurora A (#12100), anti-p-Aurora A (Thr288) (#3079), anti-Histone H3 (#4499), and anti-p-Histone H3 (Ser10) (#9701), and anti-cleaved caspase 3 (#9661) were purchased from Cell Signaling Technology (Danvers, MA, USA); anti-PARP-1 (#sc-8007) and anti-GAPDH (#sc-25778) were purchased from Santa Cruz (CA, USA).
(§3) Cells were cultured on glass slides coated with 0.05 mg/ml PDL (Sigma-aldrich, St. Louis, MO, USA) in the presence of TY-011 (0.8 μM) or equivalent amount of DMSO for 24 h. The cells were fixed in 4% paraformaldehyde at room temperature, then permeabilized with 0.15% Triton-X100 and blocked in 3% BSA in PBS. The primary antibodies were incubated with slides at 1:100 dilution in PBS containing 3% BSA in a wet chamber at 4 °C overnight. […] The images were captured with FCFM (fluorescence confocal microscope) (Olympus FV1000 IX81, Tokyo, Japan) under appropriate excitation and emission filters or phase-contrast microscope (Olympus IX73, Tokyo, Japan). […]

[7] = system: p-Histone H3 (S10), substrate of Aurora B; test: Cellular Histone H3 phosphorylation (western blot, immunofluorescence) in MGC-803 cells; format: cell-based, human
Method: as §2, §3

[8] = system: MGC-803 xenograft tumor tissues; test: TUNEL staining of xenograft tumor tissues; format: in vivo, BALB/c nu/nu mice; conditions: 9 mg/kg
Description: Female BALB/c nu/nu mice (5–6 weeks, 16–18 g) were obtained from Sino-British SIPPR/BK Lab. Animal Ltd, Shanghai, China, with the certification number of 2008001638201. The animals were housed in specific pathogen-free (SPF) conditions at Key Laboratory of Brain Functional Genomics, Ministry of Education, and were acclimatized for a week prior to use. Human MGC-803 xenografts were established by subcutaneously inoculating 5 × 10^6 cells into nude mice. When the tumors reached a mean group size of 100 ~ 150 mm^3, the mice were randomized into control and treatment groups to receive treatment accordingly. TY-011 was orally administered at 3, 6 and 9 mg/kg once a day for 13 days. […] The tumor growth was recorded with the measurement of length (L) and width (W) by caliper every other day, and calculated as tumor volume (V) = L × W^2/2. Meanwhile, the body weights of mice were recorded. The tumor volume at day n was expressed as relative tumor volume (RTV) according to the following formula: RTV% = (TVn/TV0) ×100%, where TVn is the tumor volume at day n and TV0 is the tumor volume at day 0. The therapeutic effect of treatment was calculated with formula T/C (%) = mean RTV of the treated group/mean RTV of the control group × 100%. […] The tumor regression of individual mouse was defined as the tumor volume at the end was less than the tumor volume when treatment was initiated. […]

[9] = system: HUVECs; test: HUVEC growth inhibition, 6 h, CCK-8; format: cell-based, human; conditions: various concentrations
Method: as §1

[10] = MGC-803 synchronized with nocodazole (100 nM) 16 h, then various concentrations for 24 h

`CCc1cc2c(cn1)C(c1ccccc1Cl)=Nc1c(n[nH]c1C)N2` [TY-011, 9-(2-chloro-phenyl)-6-ephyl-1-methyl-2,4-dihydro-2,3,4,7,10-pentaaza-benzo[f]azulene] showed an IC50 ([1]; Table S1, read-out: IC50 Aurora B) of 90 nM, an IC50 ([1]; mean ± SD of three independent experiments, read-out: Aurora B IC50) of 93.9 ± 33.7 nM and an IC50 [2] of 130 ± 10 nM. The IC50 ([3]; MGC-803, Table S1, proliferation, read-out: IC50 MGC-803) was 210 nM, the IC50 ([3]; MGC-803, CCK-8, Fig. 3, read-out: IC50) was 190 ± 20 nM and the IC50 [4] was 90 to 960 nM. For the same compound, the apoptotic cells ([5]; SGC-7901, 0.25 μM) was 17.2%, the apoptotic cells ([5]; SGC-7901, 0.5 μM) was 28.4% and the apoptotic cells ([5]; SGC-7901, 1 μM) was 54.3%. For the same compound, the “Aurora A green foci in mitotic cells, immunofluorescence” value ([6]; MGC-803, 0.8 μM, 24 h) was “became weaker or even disappeared”, the “p-Aurora A (T288), western blot” value [6, 10] was “decreased in a concentration-dependent manner” and the “p-Histone H3 (S10), immunofluorescence” value ([7]; MGC-803, 0.8 μM, 24 h) was “decreased sharply”. For the same compound, the “phosphorylation of Histone H3 (S10), western blot” value [7, 10] was “strongly inhibited”, the “apoptosis in tumor tissues (TUNEL)” value [8] was “obvious increase in apoptosis” and the “HUVEC proliferation under tube formation treatment condition” value [9] was “didn’t affect HUVEC proliferation”.
